The target in experiment [1] is T1, Estrogen receptor (Homo sapiens) (UniProt P03372).
T1 sequence (whole entry): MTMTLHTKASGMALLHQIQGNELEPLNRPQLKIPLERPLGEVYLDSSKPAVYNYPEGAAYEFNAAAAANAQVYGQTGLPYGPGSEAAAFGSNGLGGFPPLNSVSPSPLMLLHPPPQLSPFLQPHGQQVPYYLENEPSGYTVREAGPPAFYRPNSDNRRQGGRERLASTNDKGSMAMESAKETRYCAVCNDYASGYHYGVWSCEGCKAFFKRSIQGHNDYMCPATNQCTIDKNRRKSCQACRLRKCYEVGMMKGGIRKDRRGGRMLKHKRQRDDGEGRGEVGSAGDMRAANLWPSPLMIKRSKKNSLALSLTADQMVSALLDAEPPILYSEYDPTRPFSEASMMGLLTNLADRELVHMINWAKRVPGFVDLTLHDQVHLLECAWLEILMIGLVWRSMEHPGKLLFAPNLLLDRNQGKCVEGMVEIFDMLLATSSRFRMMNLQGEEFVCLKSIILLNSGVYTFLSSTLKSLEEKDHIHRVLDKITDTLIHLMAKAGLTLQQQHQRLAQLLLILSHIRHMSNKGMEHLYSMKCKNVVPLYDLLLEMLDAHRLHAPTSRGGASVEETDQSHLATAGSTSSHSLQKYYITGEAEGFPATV
Conditions: MCF7, 25 uM.

Experiment [2] has as its target T1, Estrogen receptor (Homo sapiens). As to conditions: MCF7, 10 uM.

In ChEMBL document CHEMBL1212895 one finds inhibition data, which are given here for ten molecules.

For orientation: inhibition means the share of the control response that was lost under treatment. A higher inhibition goes with a strong effect.

The molecule `CCCOc1ccc2c(=O)c(-c3ccc(O)cc3)coc2c1` had an inhibition in experiment [1] of 41.4%.

In the case of `CC(C)COc1ccc2c(=O)c(-c3ccc(O)cc3)coc2c1`, the inhibition is 60.5% in experiment [2] and 91.3% in experiment [1]. `CCCCOc1ccc2c(=O)c(-c3ccc(O)cc3)coc2c1`: the inhibition in experiment [1] turned out to be 49.8%. Turning to `CC1(C)C=Cc2c(ccc3c(=O)c(-c4ccc(O)cc4)coc23)O1`, the inhibition in experiment [2] came to 54.6%; in experiment [1], 100%. In turn, `COc1ccc2c(=O)c(-c3ccc(O)cc3)coc2c1` came in with an inhibition in experiment [1] of 33.2%. Turning to `CCOc1ccc2c(=O)c(-c3ccc(O)cc3)coc2c1`, the inhibition in experiment [1] was 18.8%.

Regarding `O=c1c(-c2ccc(O)cc2)coc2cc(O)ccc12`, in experiment [2], the inhibition came out at 17.2%.

As for `O=c1c(-c2ccc(O)cc2)coc2cc(OC3CCCC3)ccc12`, the inhibition in experiment [2] was determined as 54.1%; in experiment [1] it was 89.8%. Regarding `CCCCCCOc1ccc2c(=O)c(-c3ccc(O)cc3)coc2c1`, the inhibition in experiment [1] was found to be 46.4%. Take `CC(C)Oc1ccc2c(=O)c(-c3ccc(O)cc3)coc2c1`: the inhibition is 33.4% in experiment [2] and 68.1% in experiment [1].
